Results: ChEMBL document CHEMBL1909544, “Renin inhibitors for the treatment of hypertension: design and optimization of a novel series of tertiary alcohol-bearing piperidines” (Bioorg Med Chem Lett, 2011)

Key:
Assay type in all cases: ADME, organism-based
[1] = AUC in Sprague-Dawley rat at 3 mg/kg, po; parameters: dose 3 mg/kg, route oral; settings: plasma
[2] = Oral bioavailability in Sprague-Dawley rat at 3 mg/kg; settings: in vivo
[3] = Volume of distribution at steady state in Sprague-Dawley rat at 3 mg/kg, po and 5 mg/kg, iv; settings: in vivo, read-out: Vdss
[4] = Half life in Sprague-Dawley rat at 3 mg/kg, po and 5 mg/kg, iv; settings: in vivo
[5] = Clearance in Sprague-Dawley rat at 3 mg/kg, po and 5 mg/kg, iv; settings: in vivo
[6] = Clearance in Sprague-Dawley rat at 5 mg/kg, iv; parameters: dose 5 mg/kg, route intravenous; settings: in vivo
[7] = Oral bioavailability in Sprague-Dawley rat at 30 mg/kg; settings: in vivo
[8] = Half life in Sprague-Dawley rat at 5 mg/kg, iv; parameters: dose 5 mg/kg, route intravenous; settings: in vivo
[9] = Oral bioavailability in Sprague-Dawley rat at 0.3 mg/kg; settings: in vivo
[10] = Volume of distribution at steady state in Sprague-Dawley rat at 5 mg/kg, iv; parameters: dose 5 mg/kg, route intravenous; settings: in vivo, read-out: Vdss

With `O=C([C@H]1CNCC[C@]1(OCC(O)CO)c1ccc(F)c(F)c1)N(Cc1cn(Cc2cccc(F)c2)c2cccc(F)c12)C1CC1` (mixture of isomers) the AUC [1] was 0.04 µM·h, the bioavailability [2] was < 1% and the Vd [3] was 0.4 L/kg. It also gave a half-life [4] of 2.6 h and a clearance [5] of 16 mL/min/kg.

For `O=C([C@H]1CNCC[C@]1(O)c1ccc(F)c(F)c1)N(Cc1cn(Cc2cccc(F)c2)c2cccc(F)c12)C1CC1` (racemic), the AUC [1] was 0.34 µM·h, the bioavailability [2] was 37% and the Vd [3] was 48 L/kg. The half-life [4] was 9.4 h and the clearance [5] was 93 mL/min/kg.

Work on `COCCCc1cc(CN(C(=O)C2CNCCC2(O)c2ccc(F)c(F)c2)C2CC2)cc(OCCOC)c1` (single isomer, unassigned) yielded a clearance [6] of 36 mL/min/kg, a bioavailability [2] of 29% and a bioavailability [7] of 18%. It also gave a half-life [8] of 1.5 h, a bioavailability [9] of 17% and a Vd [10] of 5 L/kg.
